Key:
[1] = molecular target: T1, 5-HT1A receptor (Homo sapiens, UniProt P08908); conditions: cited from earlier work
T1 sequence (P08908 1-422): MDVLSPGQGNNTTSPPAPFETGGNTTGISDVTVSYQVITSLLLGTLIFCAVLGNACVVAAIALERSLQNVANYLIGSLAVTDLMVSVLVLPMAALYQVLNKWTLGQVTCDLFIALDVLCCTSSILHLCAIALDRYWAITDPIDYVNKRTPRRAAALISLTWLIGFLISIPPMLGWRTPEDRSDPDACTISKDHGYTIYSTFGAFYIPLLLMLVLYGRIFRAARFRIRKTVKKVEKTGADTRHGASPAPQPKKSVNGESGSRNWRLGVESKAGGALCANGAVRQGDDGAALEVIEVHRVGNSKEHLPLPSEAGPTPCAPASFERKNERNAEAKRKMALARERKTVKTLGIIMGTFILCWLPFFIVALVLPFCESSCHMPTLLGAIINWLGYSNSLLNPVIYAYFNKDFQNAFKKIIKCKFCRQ

[2] = molecular target: GPR55 (Homo sapiens, UniProt Q9Y2T6); conditions: cited from earlier work
[3] = tested on: CB1 and CB2 receptors; conditions: comparison of the two receptors; cited from earlier work
[4] = tested on: pain; experiment: FIG. 10: pain treated with 0.5 mg inhaled THC doses at intervals of at least two hours; type: in vivo, human
Method: FIG. 10 is a graphical representation of a regimen for the treatment of pain by pulmonary delivery of 0.5 mg THC doses delivered in time intervals of at least two hours, according to some embodiments of the invention.
In this use over a time period of 16 hours, 4 doses of 0.5 mg THC each were provided at time intervals of at least two hours between sequential doses, indicated by the grey triangles. The black line represents the symptom level, in this case pain, and the grey line represents psychoactive effects.
The x-axis represents the time of day, and the y-axis represents an arbitrary scale for indicating symptom severity and level of psychoactivity. The scale represents, based on user reports, a grade of the symptoms and a grade of the psychoactive effects, for example compared to a baseline report collected from the patient before treatment.

[5] = cited from earlier work
[6] = tested on: nausea of a patient undergoing chemotherapy; experiment: FIG. 11: nausea of a chemotherapy patient treated with 0.5 mg inhaled THC doses; type: in vivo, human; conditions: first 0.5 mg THC dose 30 minutes before chemotherapy
Method: FIG. 11 is a graphical representation of the treatment effect achieved by pulmonary delivery of 0.5 mg THC doses, delivered at time intervals of at least two hours, according to some embodiments of the invention.
In this example, nausea levels of a patient undergoing chemotherapy are shown, as indicated by the arbitrary Y-axis scale. The black line depicts a typical nausea effect that is often witnessed when no special anti-nausea treatment is provided (optionally other than the conventional prophylactic treatment provided normally intravenously in chemotherapy sessions).
Chemotherapy commenced at 7:00 AM, as indicated by the black arrow. […] It may remain high when not treated or even with conventional treatment, although the degree of nausea may fluctuate.
The gray line depicts nausea levels under treatment with 0.5 mg doses of THC, delivered in intervals of at least two hours, indicated by the grey triangles. […] Two additional doses of 0.5 mg THC each, delivered at 12:30 and at 19:00, sufficed to allow the patient to combat the nausea throughout the day.

[7] = tested on: cancer patients suffering from advanced symptoms and/or side effects of chemotherapy; experiment: Inventors' experiments: low dose inhaled THC, at least two hours between doses; type: in vivo, human
Method: It has been shown by inventors in experiments performed that an inhaled THC dose of 0.2-2 mg may provide sufficient symptom alleviation for a time period of at least 2 hours, at least 3 hours, at least 4 hours, at least 6 hours or intermediate or longer time periods. […] Other examples of symptoms which may be alleviated by prescribing a low dose regimen may include adverse effects of chemotherapy and/or vomiting and/or weight loss and/or insomnia and/or euphoria and/or drowsiness and/or psychomotor effects and/or cognitive effects, and/or agitation and/or depression.
Cancer patients suffering from advanced symptoms and/or side effects of chemotherapy were treated in accordance with the above described regimen, being delivered a dose of between 0.2-2 mg THC at a single delivery event and waiting at least two hours before the next dose. The patients voluntarily reported their conditions.
In a first case, a cancer patient was admitted to hospital for chemotherapy. They were previously prescribed cannabis for pain, vomiting, nausea and weight loss, which they took by smoking cigarettes. […] In the experiment, the patient was prescribed 3×0.5 mg THC per day, delivered using an inhaler device for example as described hereinabove. The first dose was to be taken 30 minutes before chemotherapy. The patient was allowed to take additional inhalations as needed. […] The patient inhaled the 3 prescribed doses only, and no other medication was prescribed or taken. Later, the same patient readmitted to hospital for an additional round of chemotherapy. This time they chose to inhale THC in four 0.5 mg doses, a first dose in the morning before chemotherapy, second and third doses taken concomitantly at midday (amounting to a single 1 mg dose) and a fourth dose in the evening.
In a second case, a cancer patient was admitted to the hospital for severe pain and in order to resume treatment that they chose to terminate earlier. They were previously prescribed cannabis for pain, cachexia and nausea, in addition to other drugs. Throughout the treatment, they received a continuous morphine drip (400-600 mg) with additional morphine treatment upon need. Before being hospitalized, they had not eaten for a week, suffered from sleep deprivation and was depressed. In the hospital they were provided with an inhaler for example as described hereinabove and during the first day of use they inhaled 0.5 mg THC doses 18 times a day, which included 4 previously prescribed doses of 0.5 mg and many demands for additional pain relief. On the next day they reduced the intake to 1 mg inhalations, 4 times a day, continuing for a period of 8 days.

[8] = single inhaled cannabis dose, Syqe Inhaler

GPR55, sequence (Q9Y2T6 whole entry, species assumed): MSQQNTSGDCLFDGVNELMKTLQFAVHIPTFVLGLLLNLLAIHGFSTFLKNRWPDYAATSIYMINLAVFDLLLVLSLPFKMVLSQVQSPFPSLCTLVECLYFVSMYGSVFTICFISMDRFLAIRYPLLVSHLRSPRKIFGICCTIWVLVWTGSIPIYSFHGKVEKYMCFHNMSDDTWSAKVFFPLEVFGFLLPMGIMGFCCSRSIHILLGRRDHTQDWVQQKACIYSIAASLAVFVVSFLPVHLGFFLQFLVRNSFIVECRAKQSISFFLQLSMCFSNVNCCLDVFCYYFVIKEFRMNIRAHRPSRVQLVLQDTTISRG

Row | SMILES | action at 5-HT1A receptor [1] | action at GPR55 [2] | affinity for the CB1 and CB2 receptors [3] | time after dose at which pain level begins to rise again ([4]; 0.5 mg THC inhaled) | pain level after first dose ([4]; 0.5 mg THC inhaled at 6:30, arbitrary scale from user reports) | psychoactivity after first dose ([4]; 0.5 mg THC inhaled, arbitrary scale from user reports) | Tmax±SD ([5]; single 15.1±0.1 mg dose of cannabis inhaled with Syqe Inhaler, eight patients) [min] | interindividual variability of Cmax [5, 8] [%] | plasma Cmax increase per mg Δ(9)-THC administered [5, 8] [ng/mL/mg THC] | maximum nausea level reached [6] | onset of nausea [6] | eating ([7]; cancer patient, 0.5 mg THC 18 times on first day, then 1 mg 4 times a day for 8 days, with morphine drip) | mood ([7]; cancer patient, 3×0.5 mg THC per day by inhaler) | mood ([7]; cancer patient, inhaled THC with morphine drip) | time period of sufficient symptom alleviation ([7]; inhaled THC dose of 0.2-2 mg) | treatment outcome in additional round of chemotherapy ([7]; same patient, four 0.5 mg inhaled THC doses)
1 | C=C(C)[C@@H]1CCC(C)=C[C@H]1c1c(O)cc(CCCCC)cc1O [CBD, Cannabidiol] | 5-HT1A receptor agonist | antagonist | greater affinity for the CB2 receptor than for the CB1 receptor |  |  |  |  |  |  |  |  |  |  |  |  | 
2 | CCCCCc1cc(O)c2c(c1)OC(C)(C)[C@@H]1CCC(C)=C[C@@H]21 [THC, Δ9-tetrahydrocannabinol] |  |  | approximately equal affinity for the CB1 and CB2 receptors | about 2 hours | effective to dramatically reduce the pain level | A rise in psychoactivity occurs | 3 ± 1 | 25.3 | 12.3 | significant reduction in the maximum level reached | significant delay in the onset of nausea | ate 3 meals per day | significantly improved mood | significant mood improvement | at least 2 hours | effective
